Source: publication PMC7935131 (Blood cancer discovery, 2020)

What was measured:
[1] = test system: TET2^MT cells; experiment: In vitro toxicity to TET2^MT cells; assay type: cell-based
[2] = test system: α-KG-dependent histone dioxygenases (H3K4 methylation); experiment: Histone H3K4 methylation in treated cells; assay type: cell-based

| SMILES | LD50 for TET2^MT [1] | Change in H3K4 methylation [2] |
| --- | --- | --- |
| O=C(O)CCC(O)C(=O)O (centres unmarked) [2HG, 2-hydroxyglutarate] | in millimolar ranges |  |
| COC(=O)CNC(=O)C(=O)OC [DMOG, methyl 2-[(2-methoxy-2-oxoethyl)amino]-2-oxoacetate] |  | significantly affected |
